Consider 40 compounds from patent publication US9744148B2, “Kallikrein 7 inhibitors” (SIXERA PHARMA AB, priority 2014, dated 2017).

Molecules are shown by their SMILES.

Chain of Active human KLK7 (SCCE) (P49862 30-253): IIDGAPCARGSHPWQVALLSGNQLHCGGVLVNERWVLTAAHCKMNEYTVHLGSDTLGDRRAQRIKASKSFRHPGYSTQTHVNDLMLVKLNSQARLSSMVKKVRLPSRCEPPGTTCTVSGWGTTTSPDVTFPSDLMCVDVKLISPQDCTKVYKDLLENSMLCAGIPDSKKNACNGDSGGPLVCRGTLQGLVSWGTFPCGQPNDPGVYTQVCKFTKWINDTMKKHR

The target in this test is Active human KLK7 (SCCE) (Homo sapiens (Human), UniProt P49862). Nature of the test: KLK7 Inhibitor Test. The class given is biochemical. As to conditions: substrate MeO-Suc-Arg-Pro-Tyr-pNA, pH 7.2, 37° C., absorbance at 405 nm. The method, then:
KLK7 Inhibitor Test Substrate:(MeO-Suc-[…]), acetate salt, Peptide international, lot #906841, previously named S-2586 Enzyme: […] Buffer: 10 mM NaPhospate, 0.5 M NaCl, pH 7.2 […] 10 μl of substance in DMSO was added to wells giving final concentrations of 20 μ[…], and 0.15625 μM. 40 μl of active KLK7 (SCCE) (diluted to 12.5 μg/ml in activity buffer) was added all wells except blank to which activity buffer was added. […] The mean value V of each sample was calculated (n=2 for the substances and n=4 for the control). From the values of V the % of total activity was calculated as (Vinhibitor/Vcontrol (no inhibitor))×100. Plotting and calculation was then done in originPro. % of total activity (y) was plotted vs. log [inhibitor] (log x) and a function of dose response y=A1+(A2-A1)/(1+10^((LOG(x0)-x)*p)) where A1=Bottom platue, A2=Top platue, x0=EC50 and p=Hill slope was fitted to the curve. […] The IC50 values were used to identify KLK7 inhibitors according to the invention.
In the case of `CCC(OC(=O)Cc1ccc(Cl)c(Cl)c1)C(=O)Nc1cc(C)on1` (stereo not shown) [Compound 39, 1-[(5-methylisoxazol-3-yl)carbamoyl]propyl 2-(3,4-dichlorophenyl)acetate], the IC50 (usually the point on the concentration scale where inhibition reaches its midpoint) was 480 nM.

`COc1ccc(NC(=O)COC(=O)Cc2ccc(Cl)cc2)cc1` [Compound 40] yielded an IC50 of 550 nM.

`CCC(OC(=O)Cc1ccc(OC)c(OC)c1)C(=O)Nc1cc(C)on1` (stereo not shown) [Compound 41, 1-[(5-methylisoxazol-3-yl)carbamoyl]propyl 2-(3,4-dimethoxyphenyl)acetate] gave an IC50 of 580 nM.

`COc1ccc(CC(=O)OC(C)C(=O)Nc2ccc(F)cc2)cc1` (stereo not shown) [Compound 42]: the IC50 was determined as 590 nM.

Compound `CCC(OC(=O)C(c1ccccc1)c1ccccc1)C(=O)Nc1ccc(OC)cc1` (stereo not shown) [Compound 43, 1-[(4-methoxyphenyl)carbamoyl]propyl 2,2-diphenylacetate] returned an IC50 of 630 nM.

In the case of `CCC(OC(=O)C(c1ccccc1)c1ccccc1)C(=O)Nc1ccc(F)cc1` (stereo not shown) [Compound 44, 1-[(4-fluorophenyl)carbamoyl]propyl 2,2-diphenylacetate], inhibition was half-maximal at 640 nM (IC50).

Compound `CCC(OC(=O)C(NC(=O)c1ccccc1)c1ccccc1)C(=O)Nc1cc(C)on1` (stereo not shown) [Compound 45] displayed an IC50 of 660 nM.

On to `COc1ccc(NC(=O)COC(=O)CCC2CCCC2)cc1` [Compound 46], for which the IC50 stood at 690 nM.

Turning to `Cc1cc(NC(=O)C(C)OC(=O)C(c2ccccc2)c2ccccc2)no1` (stereo not shown) [Compound 47, [1-methyl-2-[(5-methylisoxazol-3-yl)amino]-2-oxo-ethyl] 2,2-diphenylacetate], the IC50 amounted to 740 nM. The IC50 values of the last two compounds are within 1.5-fold of each other.

`CCC(OC(=O)C(c1ccccc1)c1ccccc1)C(=O)Nc1ccccc1` (stereo not shown) [Compound 48, 1-(phenylcarbamoyl)propyl 2,2-diphenylacetate] showed an IC50 of 760 nM. The IC50 values of the last two compounds are within 1.5-fold of each other.

Regarding `Cc1cc(NC(=O)C(OC(=O)C(NC(=O)c2ccccc2)c2ccccc2)c2ccccc2)no1` (stereo not shown) [Compound 49, [2-[(5-methylisoxazol-3-yl)amino]-2-oxo-1-phenyl-ethyl] 2-benzamido-2-phenyl-acetate], half-maximal inhibition (IC50) required 780 nM.

Regarding `O=C(COC(=O)Cc1ccc(Cl)cc1)Nc1ccc(F)cc1` [Compound 50], half-maximal inhibition (IC50) was put at 790 nM.

`O=C(COC(=O)CCC1CCCC1)Nc1ccc(F)cc1` [Compound 51]: the IC50 came out at 830 nM.

In the case of `Cc1cc(NC(=O)C(C)OC(=O)C(NC(=O)c2ccccc2)c2ccccc2)no1` (stereo not shown) [Compound 52, [1-methyl-2-[(5-methylisoxazol-3-yl)amino]-2-oxo-ethyl] 2-benzamido-2-phenyl-acetate], 950 nM corresponded to half-maximal inhibition (IC50).

Regarding `CC(OC(=O)C(c1ccccc1)c1ccccc1)C(=O)Nc1ccccc1` (stereo not shown) [Compound 53], inhibition was half-maximal at 1100 nM (IC50). The IC50 values of the last two compounds are within 1.5-fold of each other.

As for `Cc1cc(NC(=O)C(OC(=O)C(c2ccccc2)c2ccccc2)c2ccccc2)no1` (stereo not shown) [Compound 54, [2-[(5-methylisoxazol-3-yl)amino]-2-oxo-1-phenyl-ethyl] 2,2-diphenylacetate], the IC50 was 1100 nM.

As to `O=C(COC(=O)CCC1CCCC1)Nc1ccccc1` [Compound 55], the IC50 is 1110 nM.

On to `COc1ccc(CC(=O)OC(C(=O)Nc2ccc(F)cc2)c2ccccc2)cc1` (stereo not shown) [Compound 56], for which the midpoint of inhibition, the IC50, lay at 1170 nM.

`COc1ccc(NC(=O)C(C)OC(=O)C(c2ccccc2)c2ccccc2)cc1` (stereo not shown) [Compound 57] had an IC50 of 1180 nM. The IC50 values of the last two compounds are within 1.5-fold of each other.

Compound `Cc1cc(NC(=O)COC(=O)CCC2CCCC2)no1` [Compound 58] displayed an IC50 of 1200 nM.

In turn, `COc1ccc(NC(=O)COC(=O)C(NC(=O)c2ccccc2)c2ccccc2)cc1` (stereo not shown) [Compound 59, [2-(4-methoxyanilino)-2-oxo-ethyl] 2-benzamido-2-phenyl-acetate] yielded a half-inhibitory concentration (IC50) of 1230 nM.

`Cc1cc(NC(=O)COC(=O)C(NC(=O)c2ccccc2)c2ccccc2)no1` (stereo not shown) [Compound 60, [2-[(5-methylisoxazol-3-yl)amino]-2-oxo-ethyl] 2-benzamido-2-phenyl-acetate] had an IC50 of 1470 nM.

`O=C(COC(=O)C(NC(=O)c1ccccc1)c1ccccc1)Nc1ccc(F)cc1` (stereo not shown) [Compound 61, [2-(4-fluoroanilino)-2-oxo-ethyl] 2-benzamido-2-phenyl-acetate] showed an IC50 of 1510 nM. The IC50 values of the last two compounds are within 1.5-fold of each other.

The compound `O=C(COC(=O)C(NC(=O)c1ccccc1)c1ccccc1)Nc1ccccc1` (stereo not shown) [Compound 62, (2-anilino-2-oxo-ethyl) 2-benzamido-2-phenyl-acetate] had an IC50 of 1560 nM.

On to `CC(OC(=O)C(c1ccccc1)c1ccccc1)C(=O)Nc1ccc(F)cc1` (stereo not shown) [Compound 63], for which it took 1620 nM to reach half-maximal inhibition (IC50).

The compound `CCC(OC(=O)C(NC(=O)c1ccccc1)c1ccccc1)C(=O)Nc1ccc(OC)cc1` (stereo not shown) [Compound 64, 1-[(4-methoxyphenyl)carbamoyl]propyl 2-benzamido-2-phenyl-acetate] displayed an IC50 of 1700 nM.

As to `CCC(OC(=O)C(NC(=O)c1ccccc1)c1ccccc1)C(=O)Nc1ccc(F)cc1` (stereo not shown) [Compound 65, 1-[(4-fluorophenyl)carbamoyl]propyl 2-benzamido-2-phenyl-acetate], the IC50 amounted to 1790 nM.

As for `CC(OC(=O)C(NC(=O)c1ccccc1)c1ccccc1)C(=O)Nc1ccccc1` (stereo not shown) [Compound 66, (2-anilino-1-methyl-2-oxo-ethyl) 2-benzamido-2-phenyl-acetate], the IC50 came out at 1850 nM.

`COc1ccc(CC(=O)OCC(=O)Nc2ccc(F)cc2)cc1` [Compound 67] returned an IC50 of 2280 nM.

The compound `COc1ccc(CC(=O)OCC(=O)Nc2ccc(OC)cc2)cc1` [Compound 68] gave an IC50 of 2310 nM. This IC50 and that of the compound before are within 1.5-fold of each other.

`Cc1cc(NC(=O)COC(=O)CCC2CCCC2)no1` [Compound 69] had a concentration for half-maximal inhibition (IC50) of 2700 nM. The IC50 values of the last two compounds are within 1.5-fold of each other.

In turn, `Cc1cc(NC(=O)C(OC(=O)Cc2ccc(Cl)cc2)C(C)C)no1` (stereo not shown) [Compound 70, [2-methyl-1-[(5-methylisoxazol-3-yl)carbamoyl]propyl] 2-(4-chlorophenyl)acetate] had an IC50 of 2700 nM.

In the case of `COc1ccc(NC(=O)C(C)OC(=O)C(NC(=O)c2ccccc2)c2ccccc2)cc1` (stereo not shown) [Compound 71, [2-(4-methoxyanilino)-1-methyl-2-oxo-ethyl] 2-benzamido-2-phenyl-acetate], the IC50 amounted to 2760 nM.

Compound `Cc1cc(NC(=O)C(OC(=O)CCC2CCCC2)C(C)C)no1` (stereo not shown) [Compound 72, [2-methyl-1-[(5-methylisoxazol-3-yl)carbamoyl]propyl] 3-cyclopentylpropanoate] gave an IC50 of 2780 nM. This IC50 and that of the compound before are within 1.5-fold of each other.

For the compound `Cc1cc(NC(=O)COC(=O)Cc2ccc(Cl)cc2)no1` [Compound 73], the IC50 worked out at 2900 nM.

In turn, `COc1ccc(CC(=O)OCC(=O)Nc2cc(C)on2)cc1` [Compound 74] had a half-maximal inhibitory concentration (IC50) of 3050 nM.

Turning to `Cc1cc(NC(=O)C(OC(=O)C(NC(=O)c2ccccc2)c2ccccc2)C(C)C)no1` (stereo not shown) [Compound 75, [2-methyl-1-[(5-methylisoxazol-3-yl)carbamoyl]propyl] 2-benzamido-2-phenyl-acetate], the midpoint of inhibition, the IC50, lay at 3260 nM.

In the case of `O=C(NC(C(=O)OC(C(=O)Nc1ccccc1)c1ccccc1)c1ccccc1)c1ccccc1` (stereo not shown) [Compound 76, (2-anilino-2-oxo-1-phenyl-ethyl) 2-benzamido-2-phenyl-acetate], the IC50 came to 3340 nM.

In turn, `COc1ccc(CC(=O)OCC(=O)Nc2ccccc2)cc1` [Compound 77] came in with an IC50 of 3890 nM.

In turn, `COc1ccc(NC(=O)C(OC(=O)C(c2ccccc2)c2ccccc2)c2ccccc2)cc1` (stereo not shown) [Compound 78, [2-(4-methoxyanilino)-2-oxo-1-phenyl-ethyl] 2,2-diphenylacetate] registered an IC50 of 4330 nM. The IC50 values of the last two compounds are within 1.5-fold of each other.
